Results as given in patent US20250051277A1, “DELIVERY OF THERAPEUTIC ALKALOID COMPOUNDS” (Sensorium Therapeutics, Inc., priority 2021, published 2025).
Where two headings read alike, the source gives them in different places.

What was measured:
[1] = format: physicochemical; details: SGF with pepsin, pH 1.5, 37° C., 0.5 mM
[2] = format: physicochemical; details: DI water, 25° C., 0.5 mM
[3] = 5 μM
[4] = 5 μM; remark: listed apart in the source

Row | SMILES | Condition 1 Conversion (%) ([1]; time 1 min) | Condition 1 Conversion (%) ([1]; time 5 min) | Condition 1 Conversion (%) ([1]; time 30 min) | Condition 1 Conversion (%) ([1]; time 1 h) | Condition 1 Conversion (%) ([1]; time 4 h) | Condition 1 Conversion (%) ([1]; time 24 h) | Condition 2 Conversion (%) ([2]; time 1 min) | Condition 2 Conversion (%) ([2]; time 5 min) | Condition 2 Conversion (%) ([2]; time 30 min) | Condition 2 Conversion (%) ([2]; time 1 h) | Condition 2 Conversion (%) ([2]; time 4 h) | Condition 2 Conversion (%) ([2]; time 24 h) | Human Plasma Prodrug (%) ([4]; 0 min) | Human Plasma Prodrug (%) ([4]; 15 min) | Human Plasma Prodrug (%) ([4]; 60 min) | Human Plasma Prodrug (%) ([4]; 240 min) | other results
1 | COc1ccc([C@@]23CCC(=NNC(=O)Nc4ccc(C(=O)O)cc4)C[C@@H]2N(C)CC3)cc1OC (racemic) [Compound 259, 4-[[[(3aS,7aS)-3a-(3,4-dimethoxyphenyl)-1-methyl-2,3,4,5,7,7a-hexahydroindol-6-ylidene]amino]carbamoylamino]benzoic acid] | 3.6% | 4.1% | 16.5% | 25% | 29.5% | 31.9% | 0% | 0% | 0% | 2% | 4.3% | 7.8% | 100% | >99% | 85.7% | 54.3% | Mouse Plasma Prodrug (%) ([3]; 0 min): 100%; Mouse Plasma Prodrug (%) ([3]; 15 min): 86.2%; Mouse Plasma Prodrug (%) ([3]; 30 min): 81.0%; Mouse Plasma Prodrug (%) ([3]; 60 min): 67.6%; Mouse Plasma Prodrug (%) ([3]; 120 min): 38.7%; Mouse Plasma Prodrug (%) ([3]; 240 min): 19.8%; Human Plasma Prodrug (%) ([4]; 30 min): 96.6%; Human Plasma Prodrug (%) ([4]; 120 min): 70.0%
2 | COc1ccc([C@@]23CCC(OC(=O)c4ccccc4C)=C[C@@H]2N(C)CC3)cc1OC [Compound 298, [(3aS,7aS)-3a-(3,4-dimethoxyphenyl)-1-methyl-3,4,5,7a-tetrahydro-2H-indol-6-yl]2-methylbenzoate] | 0% | 0% | 0% | 0% | 0% | 0% | 0% | 0% | 0% | 0% | 0% | 0% | 100.0% | >99% | 97.5% | 90.9% | Mouse Plasma Compound 001 (%) ([3]; 15 min): 34.0%; Mouse Plasma Compound 001 (%) ([3]; 30 min): 44.5%; Mouse Plasma Compound 001 (%) ([3]; 60 min): 60.1%; Mouse Plasma Compound 001 (%) ([3]; 120 min): 64.3%; Mouse Plasma Compound 001 (%) ([3]; 240 min): 64.8%
